Measured values taken from ChEMBL document CHEMBL4354822, “Ligand-Based Design of Nondimethylphenyl-Diarylpyrimidines with Improved Metabolic Stability, Safety, and Oral Pharmacokinetic Profiles” (J Med Chem, 2019).

Columns and labels:
[1] = Aqueous solubility of compound at 2 mg measured for 24 hrs by HPLC analysis; type: physicochemical; settings: aqueous medium
[2] = Metabolic stability in human liver microsomes at 1 uM measured up to 45 mins in presence of NADPH by LC/MS/MS analysis; type: ADME, Microsome
[3] = MRTinfinity in Sprague-Dawley rat at 10 mg/kg, po via gavage administration measured after 24 hrs by LCMS analysis; type: ADME, organism-based; settings: in vivo
[4] = Cmax in Sprague-Dawley rat at 10 mg/kg, po via gavage administration measured after 24 hrs by LCMS analysis; type: ADME, organism-based; set-up: dose 10 mg/kg, route oral; settings: in vivo
[5] = Tmax in Sprague-Dawley rat at 10 mg/kg, po via gavage administration measured after 24 hrs by LCMS analysis; type: ADME, organism-based; settings: in vivo
[6] = MRTinfinity in Sprague-Dawley rat at 1 mg/kg, iv measured after 24 hrs by LCMS analysis; type: ADME, organism-based; settings: in vivo
[7] = MRTinfinity in Sprague-Dawley rat at 5 mg/kg, po via gavage administration measured after 24 hrs by LCMS analysis; type: ADME, organism-based; settings: in vivo
[8] = Acute toxicity in mouse assessed as change in body weight at 2 mg/kg, ig measured up to 14 days; type: organism-based; settings: in vivo, po, 336 h
[9] = Metabolic stability in rat liver microsomes at 1 uM measured up to 45 mins in presence of NADPH by LC/MS/MS analysis; type: ADME, Microsome
[10] = Acute toxicity in mouse assessed as mortality at 2 mg/kg, ig measured up to 14 days; type: organism-based; settings: in vivo, po, 336 h
[11] = AUC in Sprague-Dawley rat at 10 mg/kg, po via gavage administration measured after 24 hrs by LCMS analysis; type: ADME, organism-based; set-up: dose 10 mg/kg, time < 24 hr, route oral; settings: in vivo
[12] = Oral bioavailability in Sprague-Dawley rat at 10 mg/kg measured after 24 hrs by LCMS analysis; type: ADME, organism-based; settings: in vivo
[13] = Half life in Sprague-Dawley rat at 5 mg/kg, po via gavage administration measured after 24 hrs by LCMS analysis; type: ADME, organism-based; settings: in vivo
[14] = Cmax in Sprague-Dawley rat at 5 mg/kg, po via gavage administration measured after 24 hrs by LCMS analysis; type: ADME, organism-based; set-up: dose 5 mg/kg, route oral; settings: in vivo
[15] = Tmax in Sprague-Dawley rat at 5 mg/kg, po via gavage administration measured after 24 hrs by LCMS analysis; type: ADME, organism-based; settings: in vivo
[16] = Acute toxicity in mouse assessed as change in heart at 2 mg/kg, ig measured up to 14 days by H and E staining based assay; type: organism-based; settings: in vivo, po, 336 h
[17] = Acute toxicity in mouse assessed as change in liver at 2 mg/kg, ig measured up to 14 days by H and E staining based assay; type: organism-based; settings: in vivo, po, 336 h
[18] = Acute toxicity in mouse assessed as change in kidney at 2 mg/kg, ig measured up to 14 days by H and E staining based assay; type: organism-based; settings: in vivo, po, 336 h
[19] = Half life in Sprague-Dawley rat at 1 mg/kg, iv measured after 24 hrs by LCMS analysis; type: ADME, organism-based; settings: in vivo
[20] = AUCinfinity in Sprague-Dawley rat at 1 mg/kg, iv measured after 24 hrs by LCMS analysis; type: ADME, organism-based; set-up: dose 1 mg/kg, route intravenous, time infinity; settings: in vivo
[21] = Acute toxicity in mouse assessed as change in behavior at 2 mg/kg, ig measured up to 14 days; type: organism-based; settings: in vivo, po, 336 h
[22] = AUCinfinity in Sprague-Dawley rat at 10 mg/kg, po via gavage administration measured after 24 hrs by LCMS analysis; type: ADME, organism-based; set-up: dose 10 mg/kg, time infinity, route oral; settings: in vivo
[23] = Intrinsic clearance in rat liver microsomes assessed per mg protein at 1 uM measured up to 45 mins in presence of NADPH by LC/MS/MS analysis; type: ADME, Microsome; settings: microsomes, 0.75 h, 1 µM
[24] = AUC in Sprague-Dawley rat at 1 mg/kg, iv measured after 24 hrs by LCMS analysis; type: ADME, organism-based; set-up: time < 24 hr, dose 1 mg/kg, route intravenous; settings: in vivo
[25] = AUC in Sprague-Dawley rat at 5 mg/kg, po via gavage administration measured after 24 hrs by LCMS analysis; type: ADME, organism-based; set-up: time < 24 hr, dose 5 mg/kg, route oral; settings: in vivo
[26] = Half life in Sprague-Dawley rat at 10 mg/kg, po via gavage administration measured after 24 hrs by LCMS analysis; type: ADME, organism-based; settings: in vivo
[27] = Oral bioavailability in Sprague-Dawley rat at 5 mg/kg measured after 24 hrs by LCMS analysis; type: ADME, organism-based; settings: in vivo
[28] = Acute toxicity in mouse assessed as change in lung at 2 mg/kg, ig measured up to 14 days by H and E staining based assay; type: organism-based; settings: in vivo, po, 336 h
[29] = AUCinfinity in Sprague-Dawley rat at 5 mg/kg, po via gavage administration measured after 24 hrs by LCMS analysis; type: ADME, organism-based; set-up: dose 5 mg/kg, route oral, time infinity; settings: in vivo
[30] = Intrinsic clearance in human liver microsomes assessed per mg protein at 1 uM measured up to 45 mins in presence of NADPH by LC/MS/MS analysis; type: ADME, Microsome; settings: read-out: CLH
[31] = Acute toxicity in mouse assessed as change in brain at 2 mg/kg, ig measured up to 14 days by H and E staining based assay; type: organism-based; settings: in vivo, po, 336 h
[32] = test system: Human immunodeficiency virus 1; assay: Ratio of EC50 for test compound to EC50 for 4-[4-[[2-(4-cyanoanilino)pyrimidin-4-yl]amino]-3,5-dimethyl-phenyl]benzonitrile against HIV1 3B infected in human MT4 cells incubated for 5 days by MTT assay; type: functional

Molecule `Cl.N#Cc1ccc(Nc2nccc(Nc3c(F)cc(-c4ccc(C#N)cc4)cc3F)n2)cc1` has a solubility at 24 h [1] of 5.6 µg/mL, a half-life at 1 µM [2] of 0.527 h and a k el at 0.75 h, 1 µM [2] of 0.000365 s⁻¹. The MRT inf [3] was 8.27 h, the Cmax [4] was 1230 ng/mL and the Tmax [5] was 6.67 h. For the same molecule, the MRT inf [6] was 4.69 h, the MRT inf [7] was 8.37 h and the Activity [8] was “Non-Toxic”. For the same molecule, the k el at 0.75 h, 1 µM ([9]; liver microsomes) was 0.000262 s⁻¹, the t1/2 ([9]; microsomes, 0.75 h, 1 µM) was 0.738 h and the Activity [10] was “Non-Toxic”. For the same molecule, the AUC at 24 h [11] was 12100 ng·h/mL, the bioavailability [12] was 33.6% and the half-life [13] was 3.23 h. For the same molecule, the Cmax [14] was 887 ng/mL, the Tmax [15] was 5.33 h and the Activity [16] was “Non-Toxic”. For the same molecule, the Activity [17] was “Non-Toxic”, the Activity [18] was “Non-Toxic” and the half-life [19] was 4.18 h. The AUC(0-inf) [20] was 3640 ng·h/mL, the Activity [21] was “Non-Toxic” and the AUC(0-inf) [22] was 12200 ng·h/mL. It also gave a CLH [23] of 44.3 µL/min/mg, an AUC at 24 h [24] of 3560 ng·h/mL and an AUC at 24 h [25] of 7890 ng·h/mL. For the same molecule, the half-life [26] was 3.18 h, the bioavailability [27] was 44% and the Activity [28] was “Non-Toxic”. The AUC(0-inf) [29] was 8000 ng·h/mL, the microsomal CLint at 1 µM [30] was 21.9 µL/min/mg and the Activity [31] was “Non-Toxic”.
With `N#Cc1ccc(Nc2nc(Oc3ccc(-c4ccc(C#N)cc4)c(F)c3F)c3sccc3n2)cc1` the “Ratio EC50” value [32] was 14.
